US20220257550A1, “REDUCING THE VIRAL ACTIVITY OF ELAFIBRANOR WITH RIBOFLAVIN OR DHA” (priority 2019, published 2022)

Tested on: Phage T4
Assay: Phage T4 titer in liquid culture of E. coli followed by plaque assay on agar plates (PFU)
Type: cell-based, bacteriophage T4 / E. coli 613
Conditions: compounds 0.02 mg/ml (each), vs untreated control, FIG. 1
Procedure: (§1) The number of phage particles (PFU) is given. Experiment were done in triplicate.
as §1
Nutritional Products Ltd (Kaiseraugst, Switzerland). All stock solutions were in 20 mg/ml DMSO. All compounds were used at a final concentration of 0.02 mg/ml.
E. coli was grown in liquid LB (lysogeny broth) medium. […] The number of phage particles (PFU) was determined by plating on agar.

| SMILES | phage T4 PFU (number of phage particles) (MOI of 0.01, 3 hours at 30° C.) | phage T4 PFU (number of phage particles) (MOI of 100/1) |
| --- | --- | --- |
| Cc1cc2nc3c(=O)[nH]c(=O)nc-3n(C[C@H](O)[C@H](O)[C@H](O)CO)c2cc1C [Riboflavin] | decreased | decreased |
| CSc1ccc(C(=O)/C=C/c2cc(C)c(OC(C)(C)C(=O)O)c(C)c2)cc1 [elafibranor, Elafibranor] | significantly increased | significantly increased |
